Test results published in patent publication US20020146441A1, “Selection method for cosmetic auxiliaries” (priority 2000, published 2002).

How the values were obtained:
[1] = O/W emulsion, substantivity on skin model (water resistance, watering test); type: physicochemical, sheep; details: amount found after 20 min watering relative to unwatered sample, isopropanol extract, GC, converted to the logarithm
Method: (§1) The amounts of the cosmetic auxiliaries found in the phase to be cared for are compared with the amount found in the cosmetic phase (relative partition parameters). These values are converted to the logarithm and entered as activity values into the regression table (Table 1). Using various methods, regression against the COSMO-RS and other descriptors (e.g. clogP and boiling point) are carried out, and the best correlation according to the validation is selected. In all of the regression equations belonging to the examples, cosmetic auxiliaries with a deviation in the regression of more than +/−0.43 log units from the experimental value are defined as outliers. […] In the next step, the COSMO-RS regression equation is linked to the regression table which contains all descriptors for all cosmetic auxiliaries. The use of the COSMO-RS regression equation on all cosmetic auxiliaries gives the prediction for the logarithmic relative partition parameters for all cosmetic auxiliaries. These values are then used for the manufacture of cosmetic products. The procedure is analogous in all examples.
(§2) The example reflects the substantivity of a sunscreen emulsion. The emulsion is applied to a skin model (sheep shorn wool, because of the content of wool grease), and the substantivity thereto is tested using a watering test. The emulsion is prepared in the generally customary manner. The UV filters and a mixture of 39 odorants are incorporated in accordance with the formulations. 0.10 g of this emulsion is applied to a section of the skin model 5×10 cm in size. After drying for 30 min, the sample is stirred for 20 min in 4.5 l of water at room temperature. The sample is left to dry for 12 hours and then boiled for 10 min with 60 ml of isopropanol in a closed system. The extract is transferred to a measuring flask and made up to 100 ml. 0.10 g of the emulsion is applied to another section of the skin model. After drying for 12 hours, it is extracted with isopropanol as above. The extracts are injected in equal amounts one after the other into a GC injector, and gas chromatograms are recorded. The amounts of the UV filters and odorants found in the extracts are compared with one another (relative partition parameters). The analytical results are then used mathematically as described above.

[2] = W/O emulsion, substantivity on skin model (water resistance, watering test); type: physicochemical, sheep; details: amount found after 20 min watering relative to unwatered sample, isopropanol extract, GC, converted to the logarithm
Method: as §1, §2

Which results are given for `CCCCC(CC)COC(=O)c1ccccc1O` (centres unmarked) [Neo Heliopan ® OS, 2-Ethylhexylsalicylate]?
Activity (logarithmic partition parameter for substantivity on a skin model) [1]: −0.1464; Activity (logarithmic partition parameter for substantivity on a skin model) [2]: −0.2497

For `COc1ccc(C(=O)c2ccccc2)c(O)c1` [Neo Heliopan ® BB, Benzophenone-3], which “Activity (logarithmic partition parameter for substantivity on a skin model)” value [1] is on record?
Its value is −0.1595.

What about the “Activity (logarithmic partition parameter for substantivity on a skin model)” value [2] of the same molecule?
The value was −0.2689.

For `COc1ccc(C(=O)CC(=O)c2ccc(C(C)(C)C)cc2)cc1` [Neo Heliopan ® NH 357], which “Activity (logarithmic partition parameter for substantivity on a skin model)” value [1] is on record?
Its value is −0.1922.

And the “Activity (logarithmic partition parameter for substantivity on a skin model)” value [2]?
Its value is −0.1879.

What does the source list for `CC(C)CCOC(=O)c1ccccc1O` [Isoamyl salicylate]?
Activity (logarithmic partition parameter for substantivity on a skin model) [1]: −0.0960; Activity (logarithmic partition parameter for substantivity on a skin model) [2]: −0.2740

With `CCCCCC/C(C=O)=C\c1ccccc1` [Hexylcinnamaldehyde, alpha] as the molecule, how does the “Activity (logarithmic partition parameter for substantivity on a skin model)” value [1] read?
The value was −0.1250.

And the “Activity (logarithmic partition parameter for substantivity on a skin model)” value [2]?
The value was −0.1399.

With `O=C1CCCCCCCCCCCC(=O)OCCO1` [Ethylene brassylate] as the molecule, how does the “Activity (logarithmic partition parameter for substantivity on a skin model)” value [1] read?
The value was 0.0010.

And the “Activity (logarithmic partition parameter for substantivity on a skin model)” value [2]?
Its value is −0.0476.

For `COc1ccc(C=CC(=O)OCCC(C)C)cc1` [Neo Heliopan ® E1000, Isoamyl p-Methoxycinnamate], which “Activity (logarithmic partition parameter for substantivity on a skin model)” value [1] is on record?
Its value is −0.0762.

What about the “Activity (logarithmic partition parameter for substantivity on a skin model)” value [2] of the same molecule?
The value was −0.2128.

For `CC1=CCC2CC1C2(C)C` (stereo not drawn) [alpha-Pinene], which “Activity (logarithmic partition parameter for substantivity on a skin model)” value [2] is on record?
Its value is −0.2470.

With `CC(=O)/C=C/C1=C(C)CCCC1(C)C` [Ionone, beta] as the molecule, how does the “Activity (logarithmic partition parameter for substantivity on a skin model)” value [2] read?
Its value is 0.1556.

What does the source list for `C[C@@H]1CC[C@H]2C(C)(C)[C@H]3C[C@@]12CC[C@@]3(C)O` [Cedrol]?
Activity (logarithmic partition parameter for substantivity on a skin model) [1]: −0.0320; Activity (logarithmic partition parameter for substantivity on a skin model) [2]: −0.0111

Which “Activity (logarithmic partition parameter for substantivity on a skin model)” value [1] does the source give for `Cc1ccc(C=C2C(=O)C3(C)CCC2C3(C)C)cc1` (centres unmarked) [Neo Heliopan ® MBC, 4-Methylbenzylidene Camphor] here?
Its value is −0.0966.

What about the “Activity (logarithmic partition parameter for substantivity on a skin model)” value [2] of the same molecule?
The value was −0.2018.

Which results are given for `CC(=O)O[C@]1(C)CC[C@@]23C[C@@H]1C(C)(C)[C@@H]2CC[C@H]3C` [Cedryl acetate]?
Activity (logarithmic partition parameter for substantivity on a skin model) [1]: −0.0330; Activity (logarithmic partition parameter for substantivity on a skin model) [2]: −0.0170

Which “Activity (logarithmic partition parameter for substantivity on a skin model)” value [1] does the source give for `CC(C=O)Cc1ccc(C(C)(C)C)cc1` (centres unmarked) [Lilial] here?
The value was −0.1280.

What about the “Activity (logarithmic partition parameter for substantivity on a skin model)” value [2] of the same molecule?
Its value is −0.2120.

Which “Activity (logarithmic partition parameter for substantivity on a skin model)” value [2] does the source give for `CC(=O)/C=C/C1C(C)=CCCC1(C)C` (stereo not drawn) [Ionone alpha] here?
Its value is −0.0120.

For `CC1CC(OC(=O)c2ccccc2O)CC(C)(C)C1` (centres unmarked) [Neo Heliopan ® HMS, Homosalate], which “Activity (logarithmic partition parameter for substantivity on a skin model)” value [1] is on record?
Its value is −0.1571.

And the “Activity (logarithmic partition parameter for substantivity on a skin model)” value [2]?
The value was −0.2733.

With `CC1CCC(C(C)C)C(OC(=O)c2ccccc2N)C1` (centres unmarked) [Neo Heliopan ® MA, Menthyl anthranilate] as the molecule, how does the “Activity (logarithmic partition parameter for substantivity on a skin model)” value [1] read?
The value was −0.1314.

What about the “Activity (logarithmic partition parameter for substantivity on a skin model)” value [2] of the same molecule?
The value was −0.2300.

With `O=C(OCc1ccccc1)c1ccccc1O` [Benzyl salicylate] as the molecule, how does the “Activity (logarithmic partition parameter for substantivity on a skin model)” value [1] read?
The value was −0.1300.

And the “Activity (logarithmic partition parameter for substantivity on a skin model)” value [2]?
Its value is −0.1480.

Which “Activity (logarithmic partition parameter for substantivity on a skin model)” value [2] does the source give for `C=C1C2CCC(C2)C1(C)C` (centres unmarked) [Camphene] here?
Its value is −0.2420.
